Results published in patent US7863289B2, “Compounds and methods for kinase modulation, and indications therefor” (Plexxikon, Inc., priority 2006, dated 2011).

Tests used:
Type in all cases: biochemical
B-Raf V600E/T529I = B-Raf V600E/T529I (Homo sapiens, UniProt P15056, T529I/V600E); assay: Kinase activity assay, B-Raf V600E/T529I; conditions: under the test conditions employed; read-out: activity toward kinase B-Raf V600E/T529I, IC50
From the text: (§1) Assays for the activity of kinases, including, but not limited to, B-Raf, B-Raf V600E, B-Raf […] and c-Raf-1 are known in the art, for example as described in U.S. patent application Ser. No. 11/473,347 (see Iso, PCT publication WO2007002433), the disclosure of which is hereby incorporated by reference in its entirety.

B-Raf V600E = B-Raf V600E (Homo sapiens, UniProt P15056, V600E); assay: Kinase activity assay, B-Raf V600E; conditions: under the test conditions employed; read-out: activity toward kinase B-Raf V600E, IC50
Chain of B-Raf V600E (P15056 whole entry V600E): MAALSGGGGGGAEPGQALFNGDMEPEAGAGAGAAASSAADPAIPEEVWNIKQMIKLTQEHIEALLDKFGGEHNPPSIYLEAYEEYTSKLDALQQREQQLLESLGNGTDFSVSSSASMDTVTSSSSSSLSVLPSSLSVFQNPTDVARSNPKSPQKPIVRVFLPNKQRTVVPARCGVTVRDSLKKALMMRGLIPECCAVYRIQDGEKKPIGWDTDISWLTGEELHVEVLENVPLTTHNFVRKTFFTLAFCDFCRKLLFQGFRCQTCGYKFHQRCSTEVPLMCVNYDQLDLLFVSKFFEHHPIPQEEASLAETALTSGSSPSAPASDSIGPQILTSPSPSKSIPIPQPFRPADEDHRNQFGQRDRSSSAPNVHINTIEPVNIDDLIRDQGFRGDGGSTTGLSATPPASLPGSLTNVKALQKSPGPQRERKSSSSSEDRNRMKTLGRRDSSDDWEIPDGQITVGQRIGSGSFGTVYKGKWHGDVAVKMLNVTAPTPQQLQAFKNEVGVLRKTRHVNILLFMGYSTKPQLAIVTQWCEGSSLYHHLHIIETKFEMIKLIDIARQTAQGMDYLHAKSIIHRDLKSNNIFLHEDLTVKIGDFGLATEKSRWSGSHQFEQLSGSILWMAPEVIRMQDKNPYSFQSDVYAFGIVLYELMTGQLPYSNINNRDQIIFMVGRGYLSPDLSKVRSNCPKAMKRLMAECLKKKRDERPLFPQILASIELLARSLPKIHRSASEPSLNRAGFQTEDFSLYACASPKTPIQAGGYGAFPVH
From the text: as §1

Src = Src (Homo sapiens, UniProt P12931); assay: Kinase activity assay, Src; conditions: under the test conditions employed; read-out: activity toward kinase Src, IC50
Chain of Src (P12931 whole entry): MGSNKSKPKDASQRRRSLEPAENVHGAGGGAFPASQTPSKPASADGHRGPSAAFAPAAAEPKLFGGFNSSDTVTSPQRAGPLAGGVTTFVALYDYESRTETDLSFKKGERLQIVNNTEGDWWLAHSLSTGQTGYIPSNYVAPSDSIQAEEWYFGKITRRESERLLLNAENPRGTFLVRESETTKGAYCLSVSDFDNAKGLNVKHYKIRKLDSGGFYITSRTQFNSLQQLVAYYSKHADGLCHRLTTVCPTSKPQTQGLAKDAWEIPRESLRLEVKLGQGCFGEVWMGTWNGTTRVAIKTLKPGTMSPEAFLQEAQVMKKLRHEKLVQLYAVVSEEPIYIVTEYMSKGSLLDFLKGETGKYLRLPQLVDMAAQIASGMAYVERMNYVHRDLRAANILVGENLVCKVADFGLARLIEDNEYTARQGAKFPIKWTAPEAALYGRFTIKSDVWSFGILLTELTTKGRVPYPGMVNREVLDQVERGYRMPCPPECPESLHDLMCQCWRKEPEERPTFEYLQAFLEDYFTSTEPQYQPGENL
From the text: as §1

Fms = Fms (Homo sapiens, UniProt P07333); assay: Kinase activity assay, Fms; conditions: under the test conditions employed; read-out: activity toward kinase Fms, IC50
Chain of Fms (P07333 20-972): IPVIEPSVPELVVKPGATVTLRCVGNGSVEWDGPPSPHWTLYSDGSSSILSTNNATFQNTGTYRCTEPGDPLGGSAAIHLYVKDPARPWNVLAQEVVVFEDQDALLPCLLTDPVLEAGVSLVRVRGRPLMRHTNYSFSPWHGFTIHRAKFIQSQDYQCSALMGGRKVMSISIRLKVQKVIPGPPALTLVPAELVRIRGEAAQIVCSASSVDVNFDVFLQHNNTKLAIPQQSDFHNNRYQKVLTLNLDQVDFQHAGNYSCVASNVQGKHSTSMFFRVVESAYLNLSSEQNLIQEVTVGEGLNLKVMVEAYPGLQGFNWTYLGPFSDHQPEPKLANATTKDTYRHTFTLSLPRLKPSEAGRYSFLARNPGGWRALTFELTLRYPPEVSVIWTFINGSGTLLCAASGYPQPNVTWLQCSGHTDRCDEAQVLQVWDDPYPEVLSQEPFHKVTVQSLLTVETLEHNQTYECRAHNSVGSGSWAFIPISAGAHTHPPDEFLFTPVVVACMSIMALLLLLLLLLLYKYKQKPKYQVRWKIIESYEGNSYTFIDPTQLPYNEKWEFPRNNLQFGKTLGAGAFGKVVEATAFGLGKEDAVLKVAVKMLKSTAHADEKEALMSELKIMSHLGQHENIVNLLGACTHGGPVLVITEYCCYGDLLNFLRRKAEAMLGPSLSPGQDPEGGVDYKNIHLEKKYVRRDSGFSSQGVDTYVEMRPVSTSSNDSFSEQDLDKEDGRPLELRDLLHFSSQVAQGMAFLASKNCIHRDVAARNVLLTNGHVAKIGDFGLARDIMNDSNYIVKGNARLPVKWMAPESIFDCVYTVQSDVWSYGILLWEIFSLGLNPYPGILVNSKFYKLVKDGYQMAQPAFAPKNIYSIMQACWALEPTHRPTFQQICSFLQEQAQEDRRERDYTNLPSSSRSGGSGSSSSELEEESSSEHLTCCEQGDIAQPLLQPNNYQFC
From the text: as §1

B-Raf = B-Raf (Homo sapiens, UniProt P15056); assay: Kinase activity assay, B-Raf; conditions: under the test conditions employed; read-out: activity toward kinase B-Raf, IC50
Chain of B-Raf (P15056 whole entry): as the sequence (P15056 whole entry V600E) above, with E600V counted along it
From the text: as §1

c-Raf-1 = c-Raf-1 (Homo sapiens, UniProt P04049); assay: Kinase activity assay, c-Raf-1; conditions: under the test conditions employed; read-out: activity toward kinase c-Raf-1, IC50
Chain of c-Raf-1 (P04049 whole entry): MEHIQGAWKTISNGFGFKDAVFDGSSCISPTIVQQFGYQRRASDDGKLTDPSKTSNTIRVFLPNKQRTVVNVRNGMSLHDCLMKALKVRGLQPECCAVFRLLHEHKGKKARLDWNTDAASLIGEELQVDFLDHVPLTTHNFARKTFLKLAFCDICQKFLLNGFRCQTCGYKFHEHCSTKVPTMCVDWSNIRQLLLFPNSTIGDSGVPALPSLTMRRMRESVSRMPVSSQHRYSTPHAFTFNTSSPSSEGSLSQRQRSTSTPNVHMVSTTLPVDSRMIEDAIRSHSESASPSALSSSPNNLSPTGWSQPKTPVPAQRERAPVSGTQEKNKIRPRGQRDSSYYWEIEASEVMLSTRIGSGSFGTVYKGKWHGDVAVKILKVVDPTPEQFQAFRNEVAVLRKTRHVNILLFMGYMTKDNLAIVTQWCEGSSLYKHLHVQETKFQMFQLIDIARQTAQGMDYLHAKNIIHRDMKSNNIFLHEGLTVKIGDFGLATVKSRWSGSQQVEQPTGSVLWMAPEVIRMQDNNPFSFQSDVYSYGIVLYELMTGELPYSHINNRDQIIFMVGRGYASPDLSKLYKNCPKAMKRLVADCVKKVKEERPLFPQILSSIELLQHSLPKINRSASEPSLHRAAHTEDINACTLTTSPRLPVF
From the text: as §1

Kdr = Kdr (Homo sapiens, UniProt P35968); assay: Kinase activity assay, Kdr; conditions: under the test conditions employed; read-out: activity toward kinase Kdr, IC50
Chain of Kdr (P35968 20-1356): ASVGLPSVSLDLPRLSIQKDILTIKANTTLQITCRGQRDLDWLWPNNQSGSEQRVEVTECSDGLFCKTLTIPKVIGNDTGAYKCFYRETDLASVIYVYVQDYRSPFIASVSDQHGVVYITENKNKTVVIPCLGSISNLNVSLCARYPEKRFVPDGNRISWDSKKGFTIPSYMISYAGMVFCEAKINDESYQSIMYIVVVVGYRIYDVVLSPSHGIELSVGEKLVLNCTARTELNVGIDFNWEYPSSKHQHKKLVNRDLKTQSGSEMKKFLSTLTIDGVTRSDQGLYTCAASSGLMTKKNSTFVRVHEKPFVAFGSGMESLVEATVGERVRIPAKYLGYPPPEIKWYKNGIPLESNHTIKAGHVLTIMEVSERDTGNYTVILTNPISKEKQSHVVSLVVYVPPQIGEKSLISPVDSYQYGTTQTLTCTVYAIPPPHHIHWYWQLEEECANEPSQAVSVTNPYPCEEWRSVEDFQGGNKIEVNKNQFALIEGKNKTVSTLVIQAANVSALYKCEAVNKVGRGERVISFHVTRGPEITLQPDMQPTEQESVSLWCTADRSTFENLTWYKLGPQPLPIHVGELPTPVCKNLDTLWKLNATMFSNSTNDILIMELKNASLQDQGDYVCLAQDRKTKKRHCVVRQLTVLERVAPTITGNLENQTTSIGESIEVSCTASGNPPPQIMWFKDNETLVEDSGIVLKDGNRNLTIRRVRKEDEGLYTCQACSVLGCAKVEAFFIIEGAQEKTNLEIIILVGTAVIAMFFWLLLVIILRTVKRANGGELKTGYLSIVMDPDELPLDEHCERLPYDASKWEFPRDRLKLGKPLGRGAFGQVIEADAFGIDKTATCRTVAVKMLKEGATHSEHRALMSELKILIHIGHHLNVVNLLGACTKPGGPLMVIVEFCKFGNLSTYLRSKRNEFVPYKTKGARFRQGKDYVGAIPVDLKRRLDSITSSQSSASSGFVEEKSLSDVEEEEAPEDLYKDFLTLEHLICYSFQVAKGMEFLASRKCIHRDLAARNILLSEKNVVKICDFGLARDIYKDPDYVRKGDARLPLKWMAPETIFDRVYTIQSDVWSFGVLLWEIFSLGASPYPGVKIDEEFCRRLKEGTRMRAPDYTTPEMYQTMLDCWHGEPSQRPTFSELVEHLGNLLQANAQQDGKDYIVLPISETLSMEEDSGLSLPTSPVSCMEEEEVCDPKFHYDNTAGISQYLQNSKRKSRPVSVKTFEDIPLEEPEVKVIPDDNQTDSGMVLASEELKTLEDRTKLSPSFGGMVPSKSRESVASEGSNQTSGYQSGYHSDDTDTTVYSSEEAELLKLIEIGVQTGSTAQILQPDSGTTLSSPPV
From the text: as §1

Kit = Kit (Homo sapiens, UniProt P10721); assay: Kinase activity assay, Kit; conditions: under the test conditions employed; read-out: activity toward kinase Kit, IC50
From the text: as §1

Flt1 = Flt1 (Homo sapiens, UniProt P17948); assay: Kinase activity assay, Flt1; conditions: under the test conditions employed; read-out: activity toward kinase Flt1, IC50
From the text: as §1

TEC = target: T1, TEC (Homo sapiens, UniProt P42680); assay: Kinase activity assay, TEC; conditions: under the test conditions employed; read-out: activity toward kinase TEC, IC50
T1 sequence (P42680 1-631): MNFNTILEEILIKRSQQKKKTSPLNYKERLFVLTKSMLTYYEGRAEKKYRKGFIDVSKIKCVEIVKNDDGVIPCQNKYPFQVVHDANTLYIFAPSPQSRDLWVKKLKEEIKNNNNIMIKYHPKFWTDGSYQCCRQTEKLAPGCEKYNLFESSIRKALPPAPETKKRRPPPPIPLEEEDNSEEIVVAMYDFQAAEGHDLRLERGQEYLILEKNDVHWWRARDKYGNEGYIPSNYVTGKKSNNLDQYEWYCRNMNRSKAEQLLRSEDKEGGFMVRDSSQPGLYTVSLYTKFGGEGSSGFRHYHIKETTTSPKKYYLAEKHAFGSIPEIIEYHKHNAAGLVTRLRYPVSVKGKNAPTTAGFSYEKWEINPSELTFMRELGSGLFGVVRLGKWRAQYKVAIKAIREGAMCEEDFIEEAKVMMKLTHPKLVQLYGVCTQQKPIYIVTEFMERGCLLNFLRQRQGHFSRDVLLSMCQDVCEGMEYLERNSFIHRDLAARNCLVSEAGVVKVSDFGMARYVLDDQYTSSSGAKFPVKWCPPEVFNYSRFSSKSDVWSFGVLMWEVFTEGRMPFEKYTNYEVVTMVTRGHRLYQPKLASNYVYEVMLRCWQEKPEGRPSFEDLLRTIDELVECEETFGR
From the text: as §1

Jnk1 = Jnk1 (Homo sapiens, UniProt P45983); assay: Kinase activity assay, Jnk1; conditions: under the test conditions employed; read-out: activity toward kinase Jnk1, IC50
From the text: as §1

Btk = Btk (Homo sapiens, UniProt Q06187); assay: Kinase activity assay, Btk; conditions: under the test conditions employed; read-out: activity toward kinase Btk, IC50
Chain of Btk (Q06187 whole entry): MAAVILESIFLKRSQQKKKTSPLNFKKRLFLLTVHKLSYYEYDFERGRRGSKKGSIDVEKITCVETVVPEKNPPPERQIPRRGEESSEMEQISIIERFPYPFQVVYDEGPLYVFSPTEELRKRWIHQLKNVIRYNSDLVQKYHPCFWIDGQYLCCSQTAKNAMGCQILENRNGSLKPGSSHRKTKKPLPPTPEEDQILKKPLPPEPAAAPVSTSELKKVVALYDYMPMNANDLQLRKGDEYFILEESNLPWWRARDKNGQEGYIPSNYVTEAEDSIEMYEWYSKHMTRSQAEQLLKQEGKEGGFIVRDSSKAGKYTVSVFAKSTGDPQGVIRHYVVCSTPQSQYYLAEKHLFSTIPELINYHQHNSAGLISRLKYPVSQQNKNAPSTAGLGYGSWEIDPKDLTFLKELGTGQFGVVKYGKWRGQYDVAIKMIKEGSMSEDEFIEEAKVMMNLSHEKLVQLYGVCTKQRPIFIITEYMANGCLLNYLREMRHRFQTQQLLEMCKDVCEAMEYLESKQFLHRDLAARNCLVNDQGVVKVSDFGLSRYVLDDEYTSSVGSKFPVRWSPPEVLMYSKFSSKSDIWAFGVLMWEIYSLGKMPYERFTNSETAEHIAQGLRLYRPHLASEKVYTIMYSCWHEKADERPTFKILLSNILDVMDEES
From the text: as §1

HGK = HGK (Homo sapiens, UniProt O95819); assay: Kinase activity assay, HGK; conditions: under the test conditions employed; read-out: activity toward kinase HGK, IC50
From the text: as §1

Measured: IC50

Chain of B-Raf V600E/T529I (P15056 whole entry T529I/V600E): as the sequence (P15056 whole entry V600E) above, with T529I counted along it

O=C(c1c(F)ccc(NS(=O)(=O)c2ccc(-c3cnco3)s2)c1F)c1c[nH]c2ncc(Cl)cc12 [Compound P-0003, 5-Oxazol-5-yl-thiophene-2-sulfonic acid [3-(5-chloro-1H-pyrrolo[2,3-b]pyridine-3-carbonyl)-2,4-difluoro-phenyl]-amide]
not listed: Flt1 | TEC | Jnk1 | Btk | HGK
≤ 10 µM: all other assays above

O=C(c1c(F)ccc(NS(=O)(=O)c2ccc3oc(=O)ccc3c2)c1F)c1c[nH]c2ncc(Cl)cc12 [Compound P-0005, 2-Oxo-2H-chromene-6-sulfonic acid [3-(5-chloro-1H-pyrrolo[2,3-b]pyridine-3-carbonyl)-2,4-difluoro-phenyl]-amide]
not listed: Flt1 | TEC | Jnk1 | Btk | HGK
≤ 10 µM: all other assays above

O=C(c1c(F)ccc(NS(=O)(=O)c2ccc(-c3ccno3)s2)c1F)c1c[nH]c2ncc(Cl)cc12 [Compound P-0006, 5-Isoxazol-5-yl-thiophene-2-sulfonic acid [3-(5-chloro-1H-pyrrolo[2,3-b]pyridine-3-carbonyl)-2,4-difluoro-phenyl]-amide]
≤ 10 µM: B-Raf V600E/T529I | B-Raf V600E | Src | Fms | B-Raf | c-Raf-1 | Kit

O=C(c1c(F)ccc(NS(=O)(=O)c2cccc(OC(F)F)c2)c1F)c1c[nH]c2ncc(Cl)cc12 [Compound P-0016, N-[3-(5-Chloro-1H-pyrrolo[2,3-b]pyridine-3-carbonyl)-2,4-difluoro-phenyl]-3-difluoromethoxy-benzenesulfonamide]
not listed: B-Raf V600E/T529I | Jnk1 | Btk | HGK
≤ 10 µM: all other assays above

Cc1c[nH]c(-c2cnc3[nH]cc(C(=O)c4c(F)ccc(NS(=O)(=O)c5ccc(C(C)C)cc5)c4F)c3c2)n1 [Compound P-0019, N-{2,4-Difluoro-3-[5-(4-methyl-1H-imidazol-2-yl)-1H-pyrrolo[2,3-b]pyridine-3-carbonyl]-phenyl}-4-isopropyl-benzenesulfonamide]
≤ 10 µM: B-Raf V600E | Src | B-Raf | c-Raf-1 | Kdr | Kit | Jnk1

Cn1cc(-c2cnc3[nH]cc(C(=O)c4c(F)ccc(NS(=O)(=O)c5cccc(OC(F)F)c5)c4F)c3c2)cn1 [Compound P-0020]
not listed: B-Raf V600E/T529I | TEC
≤ 10 µM: all other assays above

CCCc1ccc(S(=O)(=O)Nc2ccc(F)c(C(=O)c3c[nH]c4ncc(-c5cnn(C)c5)cc34)c2F)cc1 [Compound P-0021, N-{2,4-Difluoro-3-[5-(1-methyl-1H-pyrazol-4-yl)-1H-pyrrolo[2,3-b]pyridine-3-carbonyl]-phenyl}-4-propyl-benzenesulfonamide]
not listed: B-Raf V600E/T529I | Flt1 | TEC | Jnk1 | HGK
≤ 10 µM: all other assays above

CC(C)c1ccc(S(=O)(=O)Nc2ccc(F)c(C(=O)c3c[nH]c4ncc(-c5cnn(C)c5)cc34)c2F)cc1 [Compound P-0022, N-{2,4-Difluoro-3-[5-(1-methyl-1H-pyrazol-4-yl)-1H-pyrrolo[2,3-b]pyridine-3-carbonyl]-phenyl}-4-isopropyl-benzenesulfonamide]
not listed: B-Raf V600E/T529I | Flt1 | TEC | Jnk1 | HGK
≤ 10 µM: all other assays above

CCCc1ccc(S(=O)(=O)Nc2ccc(F)c(C(=O)c3c[nH]c4ncc(-c5ncc(C)[nH]5)cc34)c2F)cc1 [Compound P-0023, N-{2,4-Difluoro-3-[5-(5-methyl-1H-imidazol-2-yl)-1H-pyrrolo[2,3-b]pyridine-3-carbonyl]-phenyl}-4-propyl-benzenesulfonamide]
not listed: B-Raf V600E/T529I | Flt1 | TEC | Jnk1 | HGK
≤ 10 µM: all other assays above

Cc1cnc(-c2cnc3[nH]cc(C(=O)c4c(F)ccc(NS(=O)(=O)c5ccc(C(F)(F)F)cc5)c4F)c3c2)[nH]1 [Compound P-0025, N-{2,4-Difluoro-3-[5-(5-methyl-1H-imidazol-2-yl)-1H-pyrrolo[2,3-b]pyridine-3-carbonyl]-phenyl}-4-trifluoromethyl-benzenesulfonamide]
not listed: B-Raf V600E/T529I | Fms | TEC | Btk | HGK
≤ 10 µM: all other assays above

CCCc1ccc(S(=O)(=O)Nc2ccc(F)c(C(=O)c3c[nH]c4ncc(-c5nccn5C)cc34)c2F)cc1 [Compound P-0026, N-{2,4-Difluoro-3-[5-(1-methyl-1H-imidazol-2-yl)-1H-pyrrolo[2,3-b]pyridine-3-carbonyl]-phenyl}-4-propyl-benzenesulfonamide]
≤ 10 µM: Flt1 | Src | B-Raf | Kdr | Kit

N#Cc1cnc2[nH]cc(C(=O)c3c(F)ccc(NS(=O)(=O)c4ccc(C(F)(F)F)cc4)c3F)c2c1 [Compound P-0031, N-[3-(5-Cyano-1H-pyrrolo[2,3-b]pyridine-3-carbonyl)-2,4-difluoro-phenyl]-4-trifluoromethyl-benzenesulfonamide]
≤ 10 µM: Flt1 | B-Raf V600E | Src | B-Raf | c-Raf-1
